pIC50, pKi: −log10 of the molar value.
Legend:
[1] = Inhibition of baker's yeast alpha-glucosidase type-1 using p-nitrophenyl-alpha-D-glucopyranoside as substrate preincubated for 30 mins followed by substrate addition measured after 20 mins by microplate reader analysis; parameters: species or system Saccharomyces cerevisiae; conditions: for pIC50: read-out: IC50
[2] = target: T1, Sucrase-isomaltase, intestinal (Rattus norvegicus, UniProt P23739); experiment: Inhibition of rat intestinal Sucrase using sucrose as substrate assessed as glucose release after 40 mins by glucose oxidase method; conditions: for pIC50: read-out: IC50
[3] = Antioxidant activity assessed as DPPH radical scavenging activity incubated for 30 mins in dark condition by spectrophotometric analysis; format: physicochemical; conditions: 0.5 h
[4] = target: T1, Sucrase-isomaltase, intestinal; experiment: Competitive inhibition of rat intestinal Sucrase using sucrose as substrate assessed as glucose release after 40 mins by Lineweaver-Burk plot analysis
[5] = target: T1, Sucrase-isomaltase, intestinal; experiment: Non-competitive inhibition of rat intestinal Sucrase using sucrose as substrate assessed as glucose release after 40 mins by Lineweaver-Burk plot analysis

T1 sequence (P23739 1-1013 limits assumed): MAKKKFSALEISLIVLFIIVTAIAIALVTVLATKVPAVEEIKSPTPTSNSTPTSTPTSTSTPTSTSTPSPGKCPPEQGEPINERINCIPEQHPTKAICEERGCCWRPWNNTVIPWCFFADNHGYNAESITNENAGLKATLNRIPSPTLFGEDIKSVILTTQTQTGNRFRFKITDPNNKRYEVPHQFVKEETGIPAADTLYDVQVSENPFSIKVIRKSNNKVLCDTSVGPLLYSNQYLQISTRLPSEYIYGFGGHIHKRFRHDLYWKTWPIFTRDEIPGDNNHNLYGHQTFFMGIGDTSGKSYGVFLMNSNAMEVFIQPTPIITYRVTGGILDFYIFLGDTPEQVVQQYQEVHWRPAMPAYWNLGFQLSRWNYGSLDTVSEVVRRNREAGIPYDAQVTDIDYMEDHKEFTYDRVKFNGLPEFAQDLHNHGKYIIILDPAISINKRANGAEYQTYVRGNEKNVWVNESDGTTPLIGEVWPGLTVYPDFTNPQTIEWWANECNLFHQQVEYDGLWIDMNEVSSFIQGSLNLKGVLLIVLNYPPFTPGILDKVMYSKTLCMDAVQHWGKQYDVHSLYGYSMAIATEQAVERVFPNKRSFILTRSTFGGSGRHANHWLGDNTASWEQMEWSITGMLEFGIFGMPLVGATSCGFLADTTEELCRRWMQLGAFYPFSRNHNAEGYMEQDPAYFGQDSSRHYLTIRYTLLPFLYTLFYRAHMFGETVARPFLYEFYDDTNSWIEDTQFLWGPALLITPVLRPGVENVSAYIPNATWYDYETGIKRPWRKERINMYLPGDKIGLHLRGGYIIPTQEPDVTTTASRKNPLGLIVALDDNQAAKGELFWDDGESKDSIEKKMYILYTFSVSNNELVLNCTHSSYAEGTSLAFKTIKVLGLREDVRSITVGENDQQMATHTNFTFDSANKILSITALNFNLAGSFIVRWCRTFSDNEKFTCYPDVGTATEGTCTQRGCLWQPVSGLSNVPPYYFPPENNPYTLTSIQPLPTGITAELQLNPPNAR
T1 sequence (P23739 1014-1841 limits assumed): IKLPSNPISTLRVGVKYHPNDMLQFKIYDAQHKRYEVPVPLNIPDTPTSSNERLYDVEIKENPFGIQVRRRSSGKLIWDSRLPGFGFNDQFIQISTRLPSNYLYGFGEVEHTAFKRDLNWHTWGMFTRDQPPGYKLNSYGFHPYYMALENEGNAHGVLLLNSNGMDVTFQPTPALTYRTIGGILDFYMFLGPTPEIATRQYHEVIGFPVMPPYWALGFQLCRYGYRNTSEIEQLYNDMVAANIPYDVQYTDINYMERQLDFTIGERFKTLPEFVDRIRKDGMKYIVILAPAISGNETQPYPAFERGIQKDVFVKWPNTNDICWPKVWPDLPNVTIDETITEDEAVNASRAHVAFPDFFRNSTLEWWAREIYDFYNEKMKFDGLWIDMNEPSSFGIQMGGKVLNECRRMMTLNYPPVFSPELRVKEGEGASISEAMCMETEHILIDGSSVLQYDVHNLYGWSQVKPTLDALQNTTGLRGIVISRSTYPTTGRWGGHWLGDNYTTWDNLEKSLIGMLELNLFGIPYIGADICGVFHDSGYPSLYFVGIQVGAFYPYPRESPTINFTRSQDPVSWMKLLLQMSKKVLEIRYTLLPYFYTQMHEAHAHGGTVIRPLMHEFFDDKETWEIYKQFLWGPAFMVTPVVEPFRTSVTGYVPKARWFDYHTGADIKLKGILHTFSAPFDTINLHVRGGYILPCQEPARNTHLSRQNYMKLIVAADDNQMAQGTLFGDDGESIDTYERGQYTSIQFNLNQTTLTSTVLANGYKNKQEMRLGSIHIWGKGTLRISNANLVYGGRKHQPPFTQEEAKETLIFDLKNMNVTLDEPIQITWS

| SMILES | pIC50 [1] | IC50 [2] | SC50 [3] | pIC50 [2] | pKi [4] | pKi [5] | IC50 [1] |
| --- | --- | --- | --- | --- | --- | --- | --- |
| O=C1C[C@@H](c2ccccc2)Oc2c1c(O)cc(O)c2[C@@H]1O[C@H](CO)[C@@H](O)[C@H](O)[C@H]1O | 3.28 | Not Active | 6.76 mM | – | – | – | – |
| O=C(CCCCCCC[C@H](O)c1ccccc1)c1c(O)cc(O)cc1O | 4.65 | – | 1.6 mM | 4.02 | 2.96 | 3.27 | – |
| O=C1O[C@H]([C@@H](O)CO)C(O)=C1O [ASCORBIC ACID] | – | Not Active | 2.45 mM | – | – | – | Not Active |
| C[C@H]1O[C@H](O[C@H]2[C@H](O)[C@@H](O)[C@@H](O[C@H]3[C@H](O)[C@@H](O)C(O)O[C@@H]3CO)O[C@@H]2CO)[C@H](O)[C@@H](O)[C@@H]1N[C@H]1C=C(CO)[C@@H](O)[C@H](O)[C@H]1O (stereo partly drawn) [ACARBOSE] | 3.99 | – | Not Active | – | – | – | – |
| O=C(CCCCCCC[C@H](O)c1ccccc1)c1c(O)cc(O)c(C(CCc2ccccc2)c2ccc(O)cc2O)c1O (stereo partly drawn) | 5.25 | – | 0.43 mM | 4.32 | 2.51 | 3.42 | – |

— ChEMBL document CHEMBL3621193, “New arylalkanones from Horsfieldia macrobotrys, effective antidiabetic agents concomitantly inhibiting α-glucosidase and free radicals” (Bioorg Med Chem Lett, 2015)
